Results on 17 molecules are retold here after publication PMC6268314, “Diterpenoids from the Buds of Pinus banksiana Lamb” (Molecules, 2012).

Common to all, as to assay type: cell-based
In data set [1] the test system is A549, human lung carcinoma cell line. Put plainly: Cytotoxicity assay (Hoechst DNA assay), A549. Conditions: for IC50: Homo sapiens, A549, concentration inhibiting 50% cell growth, 48 h, mean of three independent assays. Here is the method: (§1) P. banksiana buds were extracted successively with hexanes, CH2Cl2 and MeOH. After solvent evaporation, each extract was investigated for in vitro cytotoxic and antibacterial activities. Cytotoxic activity evaluations were carried out on lung cancer (A549), colorectal cancer (DLD-1) and normal skin fibroblasts (WS1) human cell lines using the Hoechst assay. Antibacterial activity was evaluated against Escherichia coli and Staphylococcus aureus. […] Therefore, following studies were focused on the CH2Cl2 extract that was further separated over column chromatography on silica gel to afford eleven fractions (A–K). All fractions activities were tested against both cancer cell lines and bacterial strains. […] In a next step, fractions F, G, H and K were separated by a combination of chromatographic procedures to afford the three new compounds 1–3 together with 12 known compounds. The structures of the new compounds were determined as follows and the known products were identified by comparison of their spectroscopic data with values found in the literature.
(§2) Lung carcinoma (A549), colorectal adenocarcinoma (DLD-1) and normal skin fibroblast (WS1) human cell lines were obtained from the American Type Culture Collection (ATCC). All cell lines were cultured in minimum essential medium containing Earle’s salts and L-glutamine (Mediatech Cellgro, VA, USA), to which were added 10% fetal bovine serum (Hyclone), vitamins (1X), penicillin (100 I.U./mL) and streptomycin (100 µg/mL), essential amino acids (1X) and sodium pyruvate (1X) (Mediatech Cellgro, VA). Cells were kept at 37 °C in a humidified environment containing 5% CO2. Antibacterial activity was tested on Escherichia coli ATCC 25922 and Staphylococcus aureus ATCC 25923E.
(§3) Exponentially growing cells were plated on 96-well microplates (BD Falcon) at a density of 5 × 10^3 cells per well in 100 μL of culture medium (DMEM with 10% SVF) and were allowed to adhere for 24 h before treatment. Increasing concentrations of each compound in MeOH or DMSO were then added (100 μL per well) and cells were incubated for 48 h. The final concentration of MeOH or DMSO in the culture medium was maintained at 0.25% (v/v) to avoid solvent toxicity. Microplates were then emptied and stored at −80 °C for 24 h. In a next step, 100 μL of SDS (0.01%) were added and the microplates were incubated at room temperature during 3 h before being put back to the cold. After 24 h, cells were prepared for cellular DNA assay with 100 μL of Hoechst dye 33342. Measurements were performed on the same labsystems at 365 and 460 nm wavelengths. Survival percentage was defined as the fluorescene in experimental wells compared to the control wells after subtraction of the blank values. Etoposide was used as positive control. Each experiment was carried out two times in triplicata. IC50 results were expressed as averaged values and the corresponding standard deviations were computed.

Data set [2] has as its system DLD-1, human colorectal adenocarcinoma cell line. The data set is described as follows: Cytotoxicity assay (Hoechst DNA assay), DLD-1. Particulars: concentration inhibiting 50% cell growth, 48 h, mean of three independent assays; for IC50: Homo sapiens, DLD-1. Here is the method:
as §1, §2, §3

Data set [3] has as its system WS1, human normal skin fibroblasts. The data set is described as follows: Cytotoxicity assay (Hoechst DNA assay), WS1. Conditions: Skin fibroblast, concentration inhibiting 50% cell growth, 48 h, mean of three independent assays. Here is the method: as §1, §2
as §3, with “Each experiment was carried out two times in triplicata.” left out

The subject of data set [4] is Staphylococcus aureus ATCC 25923. The data set is described as follows: Antibacterial microdilution assay (resazurin), S. aureus. Conditions: 6 h at 37 °C. Here is the method:
as §2
(§4) Antibacterial activity was evaluated using the microdilution method described by Banfi et al. with some modifications. Exponentially growing bacteria were plated in 96-well flat bottom microplates (BD Flacon) at a density of 5 × 10^3 gram-negative E. coli (ATCC 25922) or 40 × 10^3 gram-positive S. aureus (ATCC 25923) per well in 100 μL nutrient broth (Difco). The concentration of ethanol in the culture medium was maintained at 0.25% (v/v) to avoid solvent toxicity. Thereafter, 50 μL of 4% resazurin was added to each well and the microplates were incubated for 6 h at 37 °C. Fluorescence was measured after 6 h with an automated 96-well Fluoroskan Ascent Fl™ plate reader (Labsystems) using 530 and 590 nm excitation and emission wavelengths.
Background: Dilution methods test growth across graded concentrations, often in twofold steps.

Data set [5] relates to Escherichia coli ATCC 25922. Put plainly: Antibacterial microdilution assay (resazurin), E. coli. Particulars: 6 h at 37 °C. As for the experimental part:
as §2, §4

One may read the IC50 as the midpoint of a concentration-inhibition curve. Regarding `CC(C)c1ccc2c(c1)[C@H](O)CC1[C@](C)(C(=O)O)CCC[C@]21C` (stereo partly drawn) [Compound 10, 7α-hydroxydehydroabietic acid], the IC50 is above 100 µM in data set [1] (isolated compounds); above 100 µM in data set [2] (isolated compounds); above 100 µM in data set [3] (isolated compounds); above 100 µM in data set [4] (ATCC25923, isolated compounds); above 100 µM in data set [5] (ATCC25922, isolated compounds).
Regarding `CC(C)c1ccc2c(c1)[C@H](O)CC1[C@](C)(O)CCC[C@]21C` (stereo partly drawn) [Compound 8, 18-nor-abieta-8,11,13-triene-4,7α-diol], the IC50 is 63 ± 7 µM in data set [1] (isolated compounds); 91 ± 9 µM in data set [2] (isolated compounds); above 100 µM in data set [3] (isolated compounds); above 100 µM in data set [4] (ATCC25923, isolated compounds); above 100 µM in data set [5] (ATCC25922, isolated compounds).
Turning to `CC(C)(O)c1ccc2c(c1)C(=O)CC1[C@](C)(CO)CCC[C@]21C` (stereo partly shown) [Compound 14, 15,18-dihydroxyabieta-8,11,13-trien-7-one], the IC50 in data set [1] (isolated compounds) is above 100 µM; in data set [2] (isolated compounds), above 100 µM; in data set [3] (isolated compounds), above 100 µM; in data set [4] (ATCC25923, isolated compounds), above 100 µM; in data set [5] (ATCC25922, isolated compounds), above 100 µM.
For `CC(C)(O)c1ccc2c(c1)C(O)CC1C(C)(CO)CCCC21C` (stereo not drawn) [Compound 2, 7β,15,18-trihydroxyabieta-8,11,13-triene], the IC50 in data set [1] (isolated compounds) is above 100 µM; in data set [2] (isolated compounds) it was above 100 µM; in data set [3] (isolated compounds), above 100 µM; in data set [4] (ATCC25923, isolated compounds), above 100 µM; in data set [5] (ATCC25922, isolated compounds), above 100 µM.
With `CC(C)c1ccc2c(c1)[C@@H](O)CC1[C@](C)(O)CCC[C@]21C` (stereo partly drawn) [Compound 9, 18-nor-abieta-8,11,13-triene-4,7β-diol], the IC50 in data set [1] (isolated compounds) is above 100 µM; in data set [2] (isolated compounds) it was above 100 µM; in data set [3] (isolated compounds), above 100 µM; in data set [4] (ATCC25923, isolated compounds), above 100 µM; in data set [5] (ATCC25922, isolated compounds), above 100 µM.
In the case of `CC(C)c1ccc2c(c1)C(=O)C[C@H]1[C@](C)(CO)CCC[C@]21C` [Compound 12, 7-oxodehydroabietinol], the half-maximal inhibitory concentration (IC50) was 34 ± 4 µM in data set [1] (isolated compounds); 47 ± 9 µM in data set [2] (isolated compounds); above 100 µM in data set [3] (isolated compounds); above 100 µM in data set [4] (ATCC25923, isolated compounds); above 100 µM in data set [5] (ATCC25922, isolated compounds). Further, the “cytotoxicity against lung carcinoma A549 (in words)” value in data set [1] (isolated compounds) is given as “moderate cytotoxicity”.
Consider `CC(C)(O)c1ccc2c(c1)C(=O)CC1[C@](C)(C(=O)O)CCC[C@]21C` (stereo partly shown) [Compound 15, 15-hydroxy-7-oxo-abieta-8,11,13-trien-18-oic acid], for which the 50% inhibitory concentration (IC50) was above 100 µM in data set [1] (isolated compounds); above 100 µM in data set [2] (isolated compounds); above 100 µM in data set [3] (isolated compounds); above 100 µM in data set [4] (ATCC25923, isolated compounds); above 100 µM in data set [5] (ATCC25922, isolated compounds).
With `O=C(N[C@H](CO)[C@H](O)c1ccc([N+](=O)[O-])cc1)C(Cl)Cl` [Chloramphenicol, reference compound], the IC50 in data set [4] (ATCC25923, extracts and fractions) is above 1.6 µg/mL; in data set [4] (ATCC25923, isolated compounds), above 5 µM; in data set [5] (ATCC25922, extracts and fractions), 0.12 ± 0.02 µg/mL; in data set [5] (ATCC25922, isolated compounds) it was 0.37 ± 0.06 µM.
For `CC(C)(O)c1ccc2c(c1)[C@@H](O)CC1[C@](C)(C(=O)O)CCC[C@]21C` (stereo partly drawn) [Compound 6, 7β,15-dihydroxydehydroabietic acid], the IC50 is above 100 µM in data set [1] (isolated compounds); above 100 µM in data set [2] (isolated compounds); above 100 µM in data set [3] (isolated compounds); above 100 µM in data set [4] (ATCC25923, isolated compounds); above 100 µM in data set [5] (ATCC25922, isolated compounds).
As to `CC(C)(O)c1ccc2c(c1)C(=O)C[C@H]1[C@](C)(O)CCC[C@]21C` [Compound 13, 18-nor-4,15-dihydroxyabieta-8,11,13-trien-7-one], the concentration for half-maximal inhibition (IC50) was 46 ± 3 µM in data set [1] (isolated compounds); above 100 µM in data set [2] (isolated compounds); above 100 µM in data set [3] (isolated compounds); above 100 µM in data set [4] (ATCC25923, isolated compounds); above 100 µM in data set [5] (ATCC25922, isolated compounds). The “cytotoxicity against lung carcinoma A549 (in words)” value in data set [1] (isolated compounds) was “moderate cytotoxicity”. Further, the “IC50 DLD-1” value in data set [2] (isolated compounds) was “not to DLD-1”.
As for `C=C(C)c1ccc2c(c1)[C@H](O)CC1[C@](C)(C(=O)O)CCC[C@]21C` (stereo partly drawn) [Compound 1, 7α-hydroxyabieta-8,11,13,15-tetraen-18-oic acid], the half-maximal inhibitory concentration (IC50) in data set [1] (isolated compounds) is above 100 µM; in data set [2] (isolated compounds), above 100 µM; in data set [3] (isolated compounds), above 100 µM; in data set [4] (ATCC25923, isolated compounds), above 100 µM; in data set [5] (ATCC25922, isolated compounds) it was above 100 µM.
Consider `COc1cc([C@@H]2c3cc4c(cc3[C@@H](O[C@@H]3O[C@@H]5CO[C@@H](C)O[C@H]5[C@H](O)[C@H]3O)[C@H]3COC(=O)[C@H]23)OCO4)cc(OC)c1O` [Etoposide, reference compound], for which the IC50 in data set [1] (extracts and fractions) was 0.4 ± 0.2 µg/mL; in data set [1] (isolated compounds), 0.7 ± 0.3 µM; in data set [2] (extracts and fractions), 1.7 ± 0.3 µg/mL; in data set [2] (isolated compounds) it was 2.9 ± 0.5 µM; in data set [3] (extracts and fractions), 5.9 ± 0.6 µg/mL; in data set [3] (isolated compounds) it was 10 ± 2 µM.
`CC(C)(O)c1ccc2c(c1)[C@H](O)CC1[C@](C)(C(=O)O)CCC[C@]21C` (stereo partly drawn) [Compound 5, 7α,15-dihydroxydehydroabietic acid]: the IC50 is above 100 µM in data set [1] (isolated compounds); above 100 µM in data set [2] (isolated compounds); above 100 µM in data set [3] (isolated compounds); above 100 µM in data set [4] (ATCC25923, isolated compounds); above 100 µM in data set [5] (ATCC25922, isolated compounds).
As for `CC(C)(O)c1ccc2c(c1)[C@H](O)CC1[C@](C)(C=O)CCC[C@]21C` (stereo partly drawn) [Compound 4, 7α,15-dihydroxyabieta-8,11,13-trien-18-al], the IC50 in data set [1] (isolated compounds) was above 100 µM; in data set [2] (isolated compounds), above 100 µM; in data set [3] (isolated compounds), above 100 µM; in data set [4] (ATCC25923, isolated compounds) it was above 100 µM; in data set [5] (ATCC25922, isolated compounds) it was above 100 µM.
For the molecule `CC(C)(O)c1ccc2c(c1)CC[C@H]1[C@](C)(C(=O)O)CCC[C@]21C` [Compound 7, 15-hydroxydehydroabietic acid], the concentration for half-maximal inhibition (IC50) in data set [1] (isolated compounds) was 98 ± 2 µM; in data set [2] (isolated compounds) it was above 100 µM; in data set [3] (isolated compounds) it was above 100 µM; in data set [4] (ATCC25923, isolated compounds), above 100 µM; in data set [5] (ATCC25922, isolated compounds), above 100 µM.
For the molecule `C[C@@]1(CO)CCC[C@]2(C)c3ccc(O)cc3CCC12` (stereo partly shown) [Compound 3], the IC50 in data set [1] (isolated compounds) is above 100 µM; in data set [2] (isolated compounds), above 100 µM; in data set [3] (isolated compounds), above 100 µM; in data set [4] (ATCC25923, isolated compounds) it was above 100 µM; in data set [5] (ATCC25922, isolated compounds), above 100 µM.
For `CC(C)c1ccc2c(c1)[C@@H](O)CC1[C@](C)(C(=O)O)CCC[C@]21C` (stereo partly drawn) [Compound 11, 7β-hydroxydehydroabietic acid], the half-inhibitory concentration (IC50) in data set [1] (isolated compounds) was above 100 µM; in data set [2] (isolated compounds), above 100 µM; in data set [3] (isolated compounds), above 100 µM; in data set [4] (ATCC25923, isolated compounds), above 100 µM; in data set [5] (ATCC25922, isolated compounds) it was above 100 µM.
